Data as given in patent US20040209906A1, “Composition comprising ketanserin AND AN ALKANOYL L-CARNITINE FOR THE TREATMENT OF CRPS” (Sigma-Tau industrie Farmaceutiche Riunite S.p.A., priority 1998, published 2004).

Key:
CRPS [1] = details: in vivo; cited from earlier work
CRPS [2] = details: ketanserin alone; cited from earlier work
CRPS patients = test: intravenous ketanserin treatment of CRPS patients (bolus plus infusion); assay type: in vivo
Procedure: All i.v. treatments were performed after at least 15 minutes of acclimatisation at constant temperature (20-23° C.). The temperature of the affected limb was recorded with Hewlett Packard electro-skin probe between digit 4 and 5. In addition continues photoplethysmograpy of the affected hand (digit 2) or foot (digit 1), blood pressure and hearth rate were recorded. All patients received a bolus of 10 mg of ketanserin i.v. in a running saline infusion. Ketanserin administration was continued by rate of 4 mg per hour.

[3] = after the intravenous treatment with ketanserin

| Compound | efficacy of therapeutic treatment in CRPS (CRPS [1]) | therapeutic result for symptoms caused by hyperpathia and allodinia (CRPS [1]) | treatment of CRPS symptoms (CRPS [2]) | skin temperature (CRPS patients; [3]) | symptom of small vein (CRPS patients; [3]) | peripheral circulation of the affected limb (CRPS patients; all patients, after the intravenous treatment with ketanserin (10 mg bolus, then 4 mg per hour)) |
| --- | --- | --- | --- | --- | --- | --- |
| C[S+](C)[O-] [dimethyl sulfoxide] | efficacious only during acute CRPS | without any therapeutic result |  |  |  |  |
| O=C(c1ccc(F)cc1)C1CCN(CCn2c(=O)[nH]c3ccccc3c2=O)CC1 [ketanserin] |  |  | possible to treat most of symptoms, but not those caused by hyperpathia and allodinia | normalised | disappeared | normalised |
